Test results taken from patent US7727740B1, “Methods for determining whether a chemical agent modulates enzymatic activity of an L-2-hydroxy acid oxidase” (Merck Sharp & Dohme Corp., priority 2005, dated 2010).

How the values were obtained:
Test in all cases: Km determination of hydroxy acid oxidase activity (DCIP-coupled)
Format in all cases: biochemical
human Hao2 = biological target: T1, human Hao2 (Homo sapiens, UniProt Q9NYQ3); settings: human Hao2 enzyme activity against the substrate; FIG. 1A
T1 construct: made in house; host or cells: E. coli BL21-codonplus-RIPL
T1 sequence (Q9NYQ3 1-351): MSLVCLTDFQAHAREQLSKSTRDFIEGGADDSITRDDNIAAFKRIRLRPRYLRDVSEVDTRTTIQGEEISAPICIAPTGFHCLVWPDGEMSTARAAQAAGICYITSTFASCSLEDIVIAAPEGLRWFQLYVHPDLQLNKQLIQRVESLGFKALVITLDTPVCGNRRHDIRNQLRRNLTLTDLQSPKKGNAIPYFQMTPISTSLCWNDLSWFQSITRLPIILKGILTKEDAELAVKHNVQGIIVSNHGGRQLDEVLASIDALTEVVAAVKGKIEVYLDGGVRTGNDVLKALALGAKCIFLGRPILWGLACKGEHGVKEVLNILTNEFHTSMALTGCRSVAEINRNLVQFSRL
Experimental: (§1) The hydroxyl acid oxidase activity of the Hao enzymes was assayed for oxidation of the enzyme substrate 2-hydroxyoctanoate by monitoring the coupled reduction of 2,6-dichloroindophenol (DCIP) at 605 nm.
(§2) In order to determine the Km of the enzyme for a given substrate, 20 μl/well of various concentrations of the substrate 2-hydroxyoctanoate were diluted in the assay buffer (100 mM Kpi, 1 mM EDTA and 0.1% BSA) and 175 μl/well of 50 μM 2-6-dichloroindophenol (DCIP) diluted in the same assay buffer was added to a 96-well plate. The reaction was started by the addition of 5 μl/well of the Hao enzyme, and the change in A605 at room temperature (18° C.) was measured over time. An extinction coefficient of […] for DCIP at 605 nm may be used for all calculations. One unit of activity may be defined as the reduction of 1 μmol of DCIP in 1 min (see Jones, J. M., et al., J. Biol. Chem. 275:12590-12597, 2000).

mouse Hao3 = biological target: T2, mouse Hao3 (Mus musculus, UniProt Q9NYQ2, S203T); settings: mouse Hao3 enzyme activity against the substrate; FIG. 1C
T2 construct: made in house; host or cells: E. coli BL21-codonplus-RIPL
T2 sequence (Q9NYQ2 1-353 S203T): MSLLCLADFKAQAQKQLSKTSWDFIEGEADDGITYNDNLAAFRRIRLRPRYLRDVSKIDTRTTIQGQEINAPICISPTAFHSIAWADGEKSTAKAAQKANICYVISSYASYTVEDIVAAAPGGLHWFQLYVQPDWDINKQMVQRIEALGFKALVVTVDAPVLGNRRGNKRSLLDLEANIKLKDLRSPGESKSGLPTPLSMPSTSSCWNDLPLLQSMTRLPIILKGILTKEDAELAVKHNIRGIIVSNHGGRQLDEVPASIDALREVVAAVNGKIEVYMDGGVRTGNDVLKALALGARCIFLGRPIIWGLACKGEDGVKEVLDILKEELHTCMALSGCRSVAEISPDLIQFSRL
Experimental: as §1, §2

rat Hao2 = biological target: T3, rat Hao2 (Rattus norvegicus, UniProt Q07523); settings: rat Hao2 enzyme activity against the substrate; FIG. 1B
T3 sequence (Q07523 1-353): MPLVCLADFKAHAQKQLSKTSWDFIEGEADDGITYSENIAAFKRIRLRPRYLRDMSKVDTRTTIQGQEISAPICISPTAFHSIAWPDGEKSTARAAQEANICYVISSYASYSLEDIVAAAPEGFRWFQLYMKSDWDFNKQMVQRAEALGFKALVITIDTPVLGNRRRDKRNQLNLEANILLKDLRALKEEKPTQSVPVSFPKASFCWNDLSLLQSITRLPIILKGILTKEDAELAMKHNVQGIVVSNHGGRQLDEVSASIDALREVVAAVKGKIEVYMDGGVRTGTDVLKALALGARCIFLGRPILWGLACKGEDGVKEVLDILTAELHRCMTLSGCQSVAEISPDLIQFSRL
Experimental: as §1, §2

## CCCCCCC(O)C(=O)O (stereo not drawn) [2-hydroxyoctanoate]
Human Hao2
  Km: 735 µM
Mouse Hao3
  Km: 76 µM
Rat Hao2
  Km: 43 µM
